This is an account of results in patent US20120252801A1, “ANTIFUNGAL COMPOUNDS” (Katholieke Universiteit Leuven, K.U.Leuven R&D, priority 2009, published 2012).

The subject of one test is A. fumigatus. As to the kind of experiment: Minimal inhibitory concentration (MIC) against A. fumigatus. The class given is cell-based. The note with it: Aspergillus fumigatus; minimal concentration that inhibits growth.
A further test has as its system C. glabrata. As to the kind of experiment: Minimal fungicidal concentration (MFC) against C. glabrata. The class given is cell-based, Candida glabrata. The note with it: Nakaseomyces glabratus; 24 h at 37° C. in PBS; less than 1% survival relative to DMSO control. As for the experimental part:
(§1) Two-fold dilution series of the compounds were prepared in 50% DMSO. 5 μl of these series were added to 95 μl PBS buffer inoculated with 1/500 cells of an overnight culture of either C. albicans, C. glabrata or C. krusei (final DMSO conc 2%). 2% DMSO served as negative control. After 24 h incubation at 37° C. of these cultures with the antifungal compounds in PBS, the cell cultures were plated on YPD agar and colony forming units (CFUs) were determined after incubation of the plates for 2 days. MFC was determined as the minimal concentration of a compound resulting in less than 1% survival of the yeast culture relative to the DMSO control.

The test system of a further test is Aspergillus flavus. As to the kind of experiment: Minimal inhibitory concentration (MIC) against A. flavus. The class given is cell-based. The note with it: 24 h at 25° C. in ½ PDB, minimal concentration that inhibits growth. As for the experimental part:
(§2) To determine the MIC and MFC of a compound against Aspergillus flavus, Fusarium oxysporum or F. culmorum, a 2-fold dilution series of the compounds of the invention was incubated with the corresponding spore suspension in ½ PDB (potato dextrose broth, Difco) (2×10^4 spores/ml). […] MFC was determined as the minimal concentration of a compound resulting in less than 1% survival of the fungal culture relative to the DMSO control.

For the next test, the system named is C. albicans SC5314. As to the kind of experiment: Minimal fungicidal concentration (MFC) against C. albicans. The settings on record: Candida albicans, 24 h at 37° C. in PBS, less than 1% survival relative to DMSO control. The class given is cell-based. As for the experimental part: as §1
The next test has as its system Fusarium oxysporum. As to the kind of experiment: Minimal inhibitory concentration (MIC) against F. oxysporum. The class given is cell-based. The note with it: 24 h at 25° C. in ½ PDB, minimal concentration that inhibits growth. The protocol:
as §2

Values after ≈ are worked out from the molar mass of the structure shown. Some results are limits rather than exact numbers.

For orientation: MIC means the lowest concentration found to suppress growth. Low readings indicate inhibition by little substance, high ones a need for much substance. For orientation: MFC means the smallest concentration meeting the test's criterion for killing the fungus. A low value points to greater fungicidal potency. For `CCN1CC(c2ccccc2)OC(=O)C1CC(=O)Nc1ccc(C(C)C)cc1` (stereo not drawn) [CPD-01, 2-(4-ethyl-2-oxo-6-phenylmorpholin-3-yl)-N-(4-isopropylphenyl)acetamide], the MIC in the test on A. fumigatus was found to be 0.8 µg/mL (≈ 2.1 µM); against Aspergillus flavus, 12.5 µg/mL (≈ 32.9 µM). The MFC with C. glabrata and against C. albicans SC5314 was 12.5 µg/mL (≈ 32.9 µM) throughout.

As for `CCN1C[C@H](c2ccccc2)OC(=O)C1CC(=O)Nc1ccc(C(C)C)cc1` (stereo partly drawn) [CPD-02, 2-((6S)-4-ethyl-2-oxo-6-phenylmorpholin-3-yl)-N-(4-isopropylphenyl)acetamide], the MIC against A. fumigatus is 0.8 µg/mL (≈ 2.1 µM); against Aspergillus flavus, 6.25 µg/mL (≈ 16.4 µM). The minimal fungicidal concentration (MFC) with C. glabrata and with C. albicans SC5314 was 12.5 µg/mL (≈ 32.9 µM) throughout.

For the compound `CCN1C[C@H](C)OC(=O)C1CC(=O)Nc1ccc(C(C)C)cc1` (stereo partly drawn) [CPD-03, 2-((6S)-4-ethyl-6-methyl-2-oxomorpholin-3-yl)-N-(4-isopropylphenyl)acetamide], the MIC with A. fumigatus was 0.8 µg/mL (≈ 2.51 µM); in the test on Aspergillus flavus it was 6.25 µg/mL (≈ 19.6 µM). The results for the MFC in the test on C. glabrata and against C. albicans SC5314 were 6.25 µg/mL (≈ 19.6 µM) and 12.5 µg/mL (≈ 39.3 µM), respectively.

For `CCN1C[C@@H](c2ccccc2)OC(=O)C1CC(=O)Nc1ccc(C(C)C)cc1` (stereo partly drawn) [CPD-04, 2-((6R)-4-ethyl-2-oxo-6-phenylmorpholin-3-yl)-N-(4-isopropylphenyl)acetamide], the figures for the MIC in the test on A. fumigatus and with Aspergillus flavus were 0.8 µg/mL (≈ 2.1 µM) and 12.5 µg/mL (≈ 32.9 µM), respectively. Besides, the figures for the MFC in the test on C. glabrata and in the test with C. albicans SC5314 were 6.25 µg/mL (≈ 16.4 µM) and 12.5 µg/mL (≈ 32.9 µM), respectively.

`CCN1C[C@@H](C)OC(=O)C1CC(=O)Nc1ccc(C(C)C)cc1` (stereo partly drawn) [CPD-05, 2-((6R)-4-ethyl-6-methyl-2-oxomorpholin-3-yl)-N-(4-isopropylphenyl)acetamide]: the figures for the MIC in the test on A. fumigatus and with Aspergillus flavus were 0.8 µg/mL (≈ 2.51 µM) and 6.25 µg/mL (≈ 19.6 µM), respectively. Besides, the MFC against C. glabrata was found to be 6.25 µg/mL (≈ 19.6 µM); in the test with C. albicans SC5314 it was 12.5 µg/mL (≈ 39.3 µM).

As to `CCN1CC(C)(C)OC(=O)C1CC(=O)NC1CCc2ccccc21` (stereo not drawn) [CPD-09, N-(2,3-dihydro-1H-inden-1-yl)-2-(4-ethyl-6,6-dimethyl-2-oxomorpholin-3-yl)acetamide], the values for the MIC against A. fumigatus, against Fusarium oxysporum and against Aspergillus flavus were 50 µg/mL (≈ 151 µM), over 50 µg/mL and over 50 µg/mL, respectively. The values for the MFC against C. glabrata and against C. albicans SC5314 were 50 µg/mL (≈ 151 µM) and 25 µg/mL (≈ 75.7 µM), respectively.

As for `CCN1CC(C)(C)OC(=O)C1CC(=O)Nc1ccc2scnc2c1` (stereo not drawn) [CPD-10, N-(benzo[d]thiazol-5-yl)-2-(4-ethyl-6,6-dimethyl-2-oxomorpholin-3-yl)acetamide], the values for the MIC with A. fumigatus, against Fusarium oxysporum and in the test with Aspergillus flavus were 12.5 µg/mL (≈ 36 µM), over 50 µg/mL and over 50 µg/mL, respectively. The MFC in the test on C. glabrata and against C. albicans SC5314 was over 50 µg/mL throughout.

For `CCN1CC(C)(C)OC(=O)C1CC(=O)NCc1ccccc1` (stereo not drawn) [CPD-12, N-benzyl-2-(4-ethyl-6,6-dimethyl-2-oxomorpholin-3-yl)acetamide], the MIC with A. fumigatus is 12.5 µg/mL (≈ 41.1 µM); in the test with Fusarium oxysporum it was over 50 µg/mL; against Aspergillus flavus, 50 µg/mL (≈ 164 µM). Further, the MFC against C. glabrata was found to be 25 µg/mL (≈ 82.1 µM); against C. albicans SC5314 it was 12.5 µg/mL (≈ 41.1 µM).

As to `CCN1CC(C)(C)OC(=O)C1CC(=O)NC1CCN(Cc2ccccc2)CC1` (stereo not drawn) [CPD-14, N-(1-benzylpiperidin-4-yl)-2-(4-ethyl-6,6-dimethyl-2-oxomorpholin-3-yl)acetamide], the MIC in the test on A. fumigatus, against Fusarium oxysporum and in the test on Aspergillus flavus was over 50 µg/mL throughout. In addition, the MFC is over 50 µg/mL against C. glabrata and 25 µg/mL (≈ 64.5 µM) against C. albicans SC5314.

For `CCN1CC(C)(C)OC(=O)C1CC(=O)NCCc1ccccc1` (stereo not drawn) [CPD-18, 2-(4-ethyl-6,6-dimethyl-2-oxomorpholin-3-yl)-N-phenethylacetamide], the MIC in the test on A. fumigatus is 6.25 µg/mL (≈ 19.6 µM); with Fusarium oxysporum, over 50 µg/mL; in the test with Aspergillus flavus it was 25 µg/mL (≈ 78.5 µM). The MFC with C. glabrata is 50 µg/mL (≈ 157 µM); against C. albicans SC5314, 25 µg/mL (≈ 78.5 µM).

Regarding `CCN1CC(C)(C)OC(=O)C1CC(=O)NCc1ccco1` (stereo not drawn) [CPD-23, 2-(4-ethyl-6,6-dimethyl-2-oxomorpholin-3-yl)-N-(furan-2-ylmethyl)acetamide], the figures for the MIC against A. fumigatus, against Fusarium oxysporum and in the test with Aspergillus flavus were 25 µg/mL (≈ 84.9 µM), 50 µg/mL (≈ 170 µM) and 50 µg/mL (≈ 170 µM), respectively. Besides, the MFC against C. glabrata was over 50 µg/mL; against C. albicans SC5314 it was 50 µg/mL (≈ 170 µM).

For the compound `CCCNC(=O)CC1C(=O)OC(C)(C)CN1CC` (stereo not drawn) [CPD-36, 2-(4-ethyl-6,6-dimethyl-2-oxomorpholin-3-yl)-N-propylacetamide], the MIC is 50 µg/mL (≈ 195 µM) in the test on A. fumigatus, over 50 µg/mL in the test on Fusarium oxysporum and over 50 µg/mL with Aspergillus flavus. Besides, the MFC was over 50 µg/mL against C. glabrata and 25 µg/mL (≈ 97.5 µM) against C. albicans SC5314.

For the compound `CCN1CC(C)(C)OC(=O)C1CC(=O)NCCC(C)(C)C` (stereo not drawn) [CPD-38, N-(3,3-dimethylbutyl)-2-(4-ethyl-6,6-dimethyl-2-oxomorpholin-3-yl)acetamide], the minimal inhibitory concentration (MIC) against A. fumigatus, with Fusarium oxysporum and in the test with Aspergillus flavus was 50 µg/mL (≈ 168 µM) throughout. Besides, the minimum fungicidal concentration (MFC) in the test on C. glabrata was 12.5 µg/mL (≈ 41.9 µM); with C. albicans SC5314 it was 25 µg/mL (≈ 83.8 µM).

On to `CCN1CC(C)(C)OC(=O)C1CC(=O)NCC(F)(F)F` (stereo not drawn) [CPD-39, 2-(4-ethyl-6,6-dimethyl-2-oxomorpholin-3-yl)-N-(2,2,2-trifluoroethyl)acetamide], for which the MIC in the test with A. fumigatus is 25 µg/mL (≈ 84.4 µM); against Fusarium oxysporum, over 50 µg/mL; in the test with Aspergillus flavus, over 50 µg/mL. The MFC against C. glabrata was over 50 µg/mL; against C. albicans SC5314, 50 µg/mL (≈ 169 µM).

Consider `CCN1CC(C)(C)OC(=O)C1CC(=O)NCC1CCCCC1` (stereo not drawn) [CPD-47, N-(cyclohexylmethyl)-2-(4-ethyl-6,6-dimethyl-2-oxomorpholin-3-yl)acetamide], for which the minimum inhibitory concentration (MIC) in the test on A. fumigatus is 25 µg/mL (≈ 80.5 µM); with Fusarium oxysporum, over 50 µg/mL; against Aspergillus flavus it was 50 µg/mL (≈ 161 µM). Besides, the MFC in the test with C. glabrata stood at 6.25 µg/mL (≈ 20.1 µM); against C. albicans SC5314, 25 µg/mL (≈ 80.5 µM).

For the compound `CCN1CC(C)(C)OC(=O)C1CC(=O)NCc1ccc(Cl)c(Cl)c1` (stereo not drawn) [CPD-50, N-(3,4-dichlorobenzyl)-2-(4-ethyl-6,6-dimethyl-2-oxomorpholin-3-yl)acetamide], the MIC with A. fumigatus was found to be 1.6 µg/mL (≈ 4.29 µM); with Fusarium oxysporum, 25 µg/mL (≈ 67 µM); in the test on Aspergillus flavus it was 6.25 µg/mL (≈ 16.7 µM). The MFC in the test on C. glabrata was found to be 3.12 µg/mL (≈ 8.36 µM); in the test with C. albicans SC5314 it was 12.5 µg/mL (≈ 33.5 µM).

For `CCN1CC(C)(C)OC(=O)C1CC(=O)NCc1ccccc1Cl` (stereo not drawn) [CPD-57, N-(2-chlorobenzyl)-2-(4-ethyl-6,6-dimethyl-2-oxomorpholin-3-yl)acetamide], the MFC in the test on C. albicans SC5314 amounted to 25 µg/mL (≈ 73.8 µM).

In the case of `CCN1CC(C)(C)OC(=O)C1CC(=O)NCc1ccccc1C` (stereo not drawn) [CPD-69, 2-(4-ethyl-6,6-dimethyl-2-oxomorpholin-3-yl)-N-(2-methylbenzyl)acetamide], the MFC against C. albicans SC5314 was determined as 25 µg/mL (≈ 78.5 µM).

For `CCN1CC(C)(C)OC(=O)C1CC(=O)NCc1cccc(C)c1` (stereo not drawn) [CPD-70, 2-(4-ethyl-6,6-dimethyl-2-oxomorpholin-3-yl)-N-(3-methylbenzyl)acetamide], the MFC in the test with C. albicans SC5314 was found to be 25 µg/mL (≈ 78.5 µM).

In turn, `CCN1CC(C)(C)OC(=O)C1CC(=O)NCc1ccc(C(F)(F)F)cc1` (stereo not drawn) [CPD-71, 2-(4-ethyl-6,6-dimethyl-2-oxomorpholin-3-yl)-N-(4-(trifluoromethyl)benzyl)acetamide] registered an MFC with C. albicans SC5314 of 25 µg/mL (≈ 67.1 µM).

In the test on C. albicans SC5314, `CCN1CC(C)(C)OC(=O)C1CC(=O)NCc1ccc(OC)cc1` (stereo not drawn) [CPD-72, 2-(4-ethyl-6,6-dimethyl-2-oxomorpholin-3-yl)-N-(4-methoxybenzyl)acetamide] showed an MFC of 25 µg/mL (≈ 74.8 µM).

In turn, `CCN1CC(C)(C)OC(=O)C1CC(=O)NCc1ccc(-c2ccccc2)cc1` (stereo not drawn) [CPD-73, N-(biphenyl-4-ylmethyl)-2-(4-ethyl-6,6-dimethyl-2-oxomorpholin-3-yl)acetamide] registered an MFC against C. albicans SC5314 of 25 µg/mL (≈ 65.7 µM).
